Where two headings read alike, the source gives them in different places.
Target: T1, Cathepsin S (Homo sapiens, UniProt P25774)
T1 construct: gene CTSS
Assay: fluorometric cathepsin S inhibitor assay kit (ab185437), Z-VVR-AFC substrate, kinetic mode
Type: biochemical

T1 sequence (P25774 115-331): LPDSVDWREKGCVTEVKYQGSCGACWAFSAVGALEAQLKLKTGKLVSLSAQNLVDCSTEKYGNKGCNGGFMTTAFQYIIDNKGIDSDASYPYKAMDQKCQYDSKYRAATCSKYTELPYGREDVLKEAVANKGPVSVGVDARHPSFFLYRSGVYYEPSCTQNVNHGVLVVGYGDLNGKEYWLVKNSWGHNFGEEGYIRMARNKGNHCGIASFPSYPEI

C[C@H]1[C@H](C)CC[C@]2(C(=O)O)CC[C@]3(C)C(=CC[C@@H]4[C@@]5(C)C[C@@H](O)[C@H](O)[C@@](C)(CO)[C@@H]5CC[C@]43C)[C@H]12 [asiatic acid]
IC50: 14.6 µM

asiaticoside A
IC50 (read-out: IC50): 0.667 µM
